Reference: PMC6669513, “Identification of A Novel Antibacterial Peptide from Atlantic Mackerel belonging to the GAPDH-Related Antimicrobial Family and Its In Vitro Digestibility” (Marine Drugs, 2019)
No end group written: not given here.

Tests used:
[1] = tested on: Staphylococcus aureus ATCC 25923; settings: ATCC 25923, 48 h
[2] = tested on: Enterococcus faecalis ATCC 29212; settings: ATCC 29212, 48 h
[3] = tested on: Listeria ivanovii ATCC 19119; settings: ATCC 19119, 48 h
[4] = tested on: Lactobacillus acidophilus ATCC 4356; test: MIC, broth microdilution; assay type: cell-based; settings: two-fold dilution series from 1.050 mM stock in Mueller-Hinton Broth or Brucella Broth; 5.10^5 CFU/mL; visible growth after 24 or 48 h
[5] = assay type: in vitro ADME
Experimental: The dynamic GI TIM-1 Model (TNO Nutrition and Food Research Institute, Zeist, the Netherlands) described previously by was used for evaluation of peptide digestibility. Gastric pH began at 4.5 and decreased gradually to 3.6 after 20 min, 2.7 after 40 min and 2.0 after 60 min of digestion by injecting 0.5 mol/L HCl, finally reaching 1.7 after 120 min. The pH of the duodenal, jejunal and ileal compartments was adjusted to 6, 6.8 and 7.2, respectively, by injecting 0.5 mol/L sodium bicarbonate solution. Gastric secretions consisted of pepsin (0.163 mg/mL) from porcine gastric mucosa (EC 3.4.23.1; Sigma-Aldrich Canada Ltd., Oakville, ON, Canada) and lipase (0.133 mg/mL) from Rhizopus oryzae (EC 3.1.1.3; Amano Pharmaceuticals, Nagoya, Japan), both in an electrolyte solution (NaCl, 6.2 g/L; KCl, 2.2 g/L; CaCl2, 0.3 g/L; NaHCO3, 1.5 g/L) delivered at a flow rate of 0.25 mL/min. […]
To check the digestibility of the synthetic GAPDH-related derived peptide, TIM samples were separated by SPE-C18 before analysis by FPLC with ionic exchange column (IEX). […] The absorbance was recorded at 214 nm and collected fractions were screened for sequence peptides by LC-MS/MS analysis as described above.

Enterococcus faecium L1 = settings: L1, 48 h
[6] = tested on: Blautia coccoides ATCC 29236; settings: ATCC 29236, 48 h
[7] = tested on: Vibrio parahaemolyticus ALN-0312; settings: 48 h
[8] = tested on: Bacteroides thetaiotaomicron ATCC 29741; settings: two-fold dilution series from 1.050 mM stock in Mueller-Hinton Broth or Brucella Broth; 5.10^5 CFU/mL; visible growth after 24 or 48 h
[9] = tested on: Listeria monocytogenes ATCC 15313; settings: ATCC 15313, 48 h
[10] = tested on: Pseudomonas aeruginosa ATCC 27853; settings: ATCC 27853, 48 h
[11] = tested on: Escherichia coli ATCC 25922; settings: ATCC 25922, 48 h
Micrococcus luteus 272 = test: MIC, broth microdilution; assay type: cell-based; settings: two-fold dilution series from 1.050 mM stock in Mueller-Hinton Broth or Brucella Broth; 5.10^5 CFU/mL; visible growth after 24 or 48 h
Bacillus megaterium B301 = settings: Bacillus B301, 48 h
[12] = tested on: Bifidobacterium infantis ATCC 15697; settings: ATCC 15697, 48 h
gastric pepsin = settings: upper gastrointestinal conditions; cited from earlier work
Excerpt: Food additives such as AMPs must be safe for the human microbiota and the environment. Consequently, knowing the digestibility of AMPs in the human gastrointestinal tract is critical and should not be underestimated. The TIM-1 model used to evaluate the stability of the synthetic peptide simulated the major GI stress conditions, such as gastric acid environment, excretion of proteolytic enzymes and bile salts, and peristaltic movements.

| Substance | MIC [1] | MIC [2] | MIC [3] | MIC [4] | Proportion of intact synthetic peptide in the effluent fraction [5] | Sensitivity to the digestive process ([5]; pH 2.7) | MIC (Enterococcus faecium L1) | MIC [6] | MIC [7] | MIC [8] | MIC [9] | MIC [10] | MIC [11] | MIC (Micrococcus luteus 272) | MIC (Bacillus megaterium B301) | MIC [12] | Stability with gastric pepsin combined with low pH (gastric pepsin) |
| --- | --- | --- | --- | --- | --- | --- | --- | --- | --- | --- | --- | --- | --- | --- | --- | --- | --- |
| KVEIVAINDPFIDL [AMGAP] | >1050 µM | >1050 µM | 131 µM | 263 µM | 2% | sensitive | >1050 µM | >1050 µM | >1050 µM | 263 µM | 131 µM | >1050 µM | >1050 µM | 263 µM | >1050 µM | >1050 µM | – |
| pediocin PA-1: pediocin PA-1, compared for stability under upper gastrointestinal conditions (KYYGNGVTCGKHSCSVDWGKATTCIINNGAMAWATGGHQGNHKC; ends and bridges not checked; cysteine pairing not given here; UniProt P29430 19-62, looked up) | – | – | – | – | – | – | – | – | – | – | – | – | – | – | – | – | reduced its stability |
